The text below walks through data of patent publication US20120190701A1, “RENIN INHIBITORS” (Merck Sharp & Dohme Corp., priority 2009, published 2012).

Experiment [1] addresses T1, Human recombinant renin (Homo sapiens, UniProt P00797).
T1 construct: purchased Proteos
T1 sequence (P00797 67-406): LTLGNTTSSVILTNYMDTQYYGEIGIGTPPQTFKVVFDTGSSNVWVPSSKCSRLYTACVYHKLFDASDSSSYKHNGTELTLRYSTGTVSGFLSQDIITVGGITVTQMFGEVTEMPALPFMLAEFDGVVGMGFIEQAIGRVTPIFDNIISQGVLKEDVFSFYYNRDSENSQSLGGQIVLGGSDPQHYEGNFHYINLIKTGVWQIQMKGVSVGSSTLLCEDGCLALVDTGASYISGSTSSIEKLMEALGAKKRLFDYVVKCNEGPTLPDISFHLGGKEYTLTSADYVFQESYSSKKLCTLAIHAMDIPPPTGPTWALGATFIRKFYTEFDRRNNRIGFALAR
Description: Inhibition of human recombinant renin (buffer assay, quenched fluorescent peptide). Particulars: buffer: 50 mM MOPS pH 7.4, 100 mM NaCl, 0.002% Tween 20; 37° C., 3 hours. It counts as biochemical. How it is done:
Background fluorescence at t=0 is subtracted from the measurement at t=3 hours. Inhibitory activity of the compounds is expressed as IC50.

The target in experiment [2] is T2, recombinant renin in human plasma (Homo sapiens, UniProt P00797).
T2 construct: purchased Proteos
T2 sequence (P00797 67-406): T1 sequence (P00797 67-406)
The experiment can be described thus: Inhibition of renin in human plasma (quenched fluorescent peptide). It counts as biochemical. The settings on record: human EDTA plasma with 1 nM recombinant renin added; 37° C., 1 hour. How it is done: Human EDTA-collected plasma is rapidly thawed in warm water and centrifuged at 2900 g for 15 minutes at 4° C. The supernatant is collected and recombinant renin (Proteos) is added at a final concentration of 1 nM. […] The plate is incubated at 37° C. for 1 hour. […] Background fluorescence at t=0 is subtracted from the measurement at t=1 hour. Inhibitory activity of the compounds is expressed as IC50.

SMILES strings stand for the structures.

By IC50 is commonly meant the concentration that inhibits the measured activity by half. Regarding `COCCCc1cc(CCCOC)c(Cl)c(CN(C(=O)[C@H]2CNCC[C@@]23OCc2cc(F)c(F)cc23)C2CC2)c1` (relative stereo) [Example 53], the IC50 in experiment [1] is 0.1 nM; in experiment [2], 1.3 nM.

As to `COCCCc1cc(CN(C(=O)[C@H]2CNCC[C@@]23OCc2cc(F)c(F)cc23)C2CC2)c2ccccc2n1` (relative stereo) [Example 48, (cis-1,3′)-N-Cyclopropyl-5,6-difluoro-N-{[2-(3-methoxypropyl)-4-quinolinyl]methyl}-3H-spiro[2-benzofuran-1,4′-piperidine]-3′-carboxamide], the IC50 in experiment [1] turned out to be 0.7 nM; in experiment [2] it was 2.3 nM.

Regarding `COCCCc1cc(CN(C(=O)[C@H]2CNCC[C@@]23OCc2cc(F)c(F)cc23)C2CC2)c2ncccc2c1` (relative stereo) [Example 54, (cis-1,3′)-N-Cyclopropyl-5,6-difluoro-N-{[6-(3-methoxypropyl)-8-quinolinyl]methyl}-3H-spiro[2-benzofuran-1,4′-piperidine]-3′-carboxamide], the IC50 in experiment [1] amounted to 0.1 nM; in experiment [2], 3.5 nM.

Regarding `COCCc1cc(C)c(C)c(CN(C(=O)[C@H]2CNCC[C@@]23OCc2cc(F)c(F)cc23)C2CC2)c1` (relative stereo) [Example 45, (cis-1,3′)-N-Cyclopropyl-5,6-difluoro-N-[5-(2-methoxyethyl)-2,3-dimethylbenzyl]-3H-spiro[2-benzofuran-1,4′-piperidine]-3′-carboxamide], the IC50 in experiment [1] was found to be 0.1 nM; in experiment [2], 0.6 nM.

Regarding `O=C([C@H]1CNCC[C@@]12OCc1cc(F)c(F)cc12)N(Cc1c[nH]c2cccc(F)c12)C1CC1` (relative stereo) [Example 56, (cis-1,3′)-N-cyclopropyl-5,6-difluoro-N-[(4-fluoro-1H-indol-3-yl)methyl]-3H-spiro[2-benzofuran-1,4′-piperidine]-3′-carboxamide], the results for the IC50 in experiment [1] and in experiment [2] were 1.2 nM and 4.5 nM, respectively.
